Target: Adenosine receptor A2a (Rattus norvegicus, UniProt P30543)
Experiment: Binding affinity was determined in radioligand binding assay at rat striatal Adenosine A2A receptor vs [3H]-CGS- 21680

Adenosine receptor A2a, sequence (P30543 whole entry): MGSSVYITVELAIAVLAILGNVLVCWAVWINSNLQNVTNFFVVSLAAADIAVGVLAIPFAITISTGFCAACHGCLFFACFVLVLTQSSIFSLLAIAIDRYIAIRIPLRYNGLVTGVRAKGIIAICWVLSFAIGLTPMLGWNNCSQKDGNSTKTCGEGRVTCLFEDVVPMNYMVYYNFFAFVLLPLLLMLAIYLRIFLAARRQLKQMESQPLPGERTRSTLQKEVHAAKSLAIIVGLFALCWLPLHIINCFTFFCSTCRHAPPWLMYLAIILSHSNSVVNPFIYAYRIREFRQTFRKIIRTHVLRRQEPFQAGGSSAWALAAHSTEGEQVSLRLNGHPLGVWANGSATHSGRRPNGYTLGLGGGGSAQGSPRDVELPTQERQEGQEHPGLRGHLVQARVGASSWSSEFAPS

## CCOC(=O)C1C(C)=NC(c2ccccc2)=C(C(=O)OCc2ccccc2)C1C#Cc1ccccc1 (stereo unspecified) [CAS_393594]
  Ki: > 100 nM

From BindingDB's records for doi:10.1021/jm980094b (National Institute of Diabetes, 1998)
